Laboratory results published in patent US5616606A, “Oligopeptide antiretroviral agents” (priority 1995, dated 1997).
Several values for one entry are separate records, joined by “and”; a condition that tells them apart may be missing. Equal entries are not always repeated. Where two headings read alike, the source gives them in different places.

Experiments:
[1] = tested on: HIV-1; details: for EC50: Table XI; for INFECTED RESPONSE % of Control: Table X; for Anti-HIV-1 Activity (National Cancer Institute Designation): inactive, moderate or active
[2] = tested on: poly(dA-dT); assay: ethidium displacement assay, poly(dA-dT); details: relative to ethidium 9.5 × 10^6 M^-1, average of repeat measurements
[3] = tested on: T4 lymphocytes (CEM cell line); assay: NCI anti-HIV screen, toxicity control in uninfected cells; format: cell-based; details: Table X
[4] = target: Moloney Leukemia Virus reverse transcriptase (Moloney murine leukemia virus, UniProt P03355); assay: inhibition of MLV associated reverse transcriptase activity; details: for ID50 (average ± SD): 50% inhibitory dose after 120 min incubation
[5] = tested on: calf thymus DNA; assay: ethidium displacement assay, drug-DNA binding constant, calf thymus DNA; details: relative to ethidium 10^7 M^-1, average of repeat measurements
[6] = tested on: SC-1 cells; assay: toxicity TD50 reported with the anti-MLV test; details: Table IV
[7] = tested on: Moloney murine leukemia virus (MLV); assay: anti-Moloney murine leukemia virus (MLV) plaque test; format: cell-based; details: anti-MLV plaque count
[8] = tested on: vaccinia virus; format: cell-based; details: against vaccinia virus; hydrochloride
[9] = solubility in DMSO, MeOH, H2O; format: physicochemical
[10] = tested on: 2.2.15 cells; assay: toxicity analysis, neutral red dye uptake in 2.2.15 cells; details: triplicate, ± standard deviation
[11] = tested on: HBV; assay: inhibition of HBV DNA replication in 2.2.15 cell cultures; format: cell-based; details: for INT[…] DNA MONO.: 24 hours following the 9th day of treatment; for INT[…] DNA MONO. / HBV VIRION DNA DAY 0 / HBV VIRION DNA DAY 9 / HBV VIRION DNA DAY 6: single well, dihydrochloride
[12] = 50 μM, zero = undetectable, cutoff 0.1 pg/ml

In the case of `Cl.Cl.Cn1cc(NC(=O)c2cc(NC(=O)[C@@H]3CC[C@H]3C(=O)Nc3cc(C(=O)Nc4cc(C(=O)NCCC(=N)N)n(C)c4)n(C)c3)cn2C)cc1C(=O)NCCC(=N)N` (relative stereo) [Compound 25b, N,N'-di[1-methyl-2-[1-methyl-2-carboxamido(3-propionamidine)-4-pyrrole]-4-pyrrolyl] trans 1,2-cyclobutaneamide dihydrochloride], the EC50 [1] is reported as 0.42 µM, the “INFECTED RESPONSE % of Control” value ([1]; dose 2.92 × 10^-4 Molar) is reported as 0.04 % of Control and the “INFECTED RESPONSE % of Control” value ([1]; dose 2.93 × 10^-5 Molar) is reported as 110.05 % of Control. For the same compound, the “INFECTED RESPONSE % of Control” value ([1]; dose 2.93 × 10^-6 Molar) was 77.00 % of Control, the “INFECTED RESPONSE % of Control” value ([1]; dose 2.94 × 10^-7 Molar) was 42.92 % of Control and the “INFECTED RESPONSE % of Control” value ([1]; dose 9.25 × 10^-4 Molar) was 9.72 % of Control. The “INFECTED RESPONSE % of Control” value ([1]; dose 9.27 × 10^-5 Molar) was 90.52 % of Control, the “INFECTED RESPONSE % of Control” value ([1]; dose 9.29 × 10^-7 Molar) was 59.07 % of Control and the “INFECTED RESPONSE % of Control” value ([1]; dose 9.38 × 10^-6 Molar) was 80.26 % of Control. For the same compound, the Kapp [2] was 5.6e+07 M⁻¹, the “[…] % of Control” value ([3]; dose 2.92 × 10^-4 Molar) was 0.54 % of Control and the “[…] % of Control” value ([3]; dose 2.93 × 10^-5 Molar) was 174.62 % of Control. For the same compound, the “[…] % of Control” value ([3]; dose 2.93 × 10^-6 Molar) was 116.36 % of Control, the “[…] % of Control” value ([3]; dose 2.94 × 10^-7 Molar) was 90.95 % of Control and the “[…] % of Control” value ([3]; dose 9.25 × 10^-4 Molar) was 8.29 % of Control. The “[…] % of Control” value ([3]; dose 9.27 × 10^-5 Molar) was 101.95 % of Control, the “[…] % of Control” value ([3]; dose 9.29 × 10^-7 Molar) was 102.41 % of Control and the “[…] % of Control” value ([3]; dose 9.38 × 10^-6 Molar) was 145.18 % of Control. The “ID50 (average ± SD)” value [4] was 21.8 ± 9.2 µg/mL.
With `Cl.Cl.Cn1cc(NC(=O)c2cc(NC(=O)[C@@H]3C[C@H]3C(=O)Nc3cc(C(=O)Nc4cc(C(=O)NCCC(=N)N)n(C)c4)n(C)c3)cn2C)cc1C(=O)NCCC(=N)N` [Compound 23b, N,N'-Di(1-methyl-2-[1-methyl-2-carboxamide-(3-proprionamidine)-4-pyrrole]-4-pyrrolyl)transcylcopropyldicarboxamide dihydrochloride] the EC50 [1] was 3.44 µM, the “Anti-HIV-1 Activity (National Cancer Institute Designation)” value [1] was “Moderate” and the Kapp [2] was 5.3e+07 M⁻¹. For the same compound, the “ID50 (average ± SD)” value [4] was 7.0 ± 3.6 µg/mL.
In the case of `Cn1cc(NC(=O)c2cc(NC(=O)CNC(=N)N)cn2C)cc1C(=O)NCCC(=N)N` [Compound 1, reference compound], the Kapp [2] is reported as 9.4e+07 M⁻¹ and the “DNA Binding Constant” value [5] is reported as 1.9e+07 M⁻¹.
With `Cl.Cl.Cn1cc(NC(=O)c2nc(NC(=O)/C=C\C(=O)Nc3cn(C)c(C(=O)Nc4cn(C)c(C(=O)NCCC(=N)N)n4)n3)cn2C)nc1C(=O)NCCC(=N)N` [Compound 39, Bis-Lexitropsin] the “Toxicity, TD50” value [6] was over 100.00 ug/mL^-1 and the “Activity, MIC50” value [7] was over 100.00 µg/mL.
With “1-Methyl-4-(1-methyl-4-trimethylammoniumacetamidopyrrole-2-carboxamido)pyr role-2-carboxyamidopriopionamidine chloride hydrochloride [Example 3(A)]” the minimum inhibitory concentration [8] was 20 µg/mL.
Compound “1-Methyl-4-(1-methyl-4-trimethylammoniumacetamidopyrrole-2-carboxamido)pyr role-2-carboxyamidopriopionamidine chloride hydrochloride [3(B)]” has a minimum inhibitory concentration [8] of 300 µg/mL.
With `Cl.Cl.Cn1cc(NC(=O)c2cc(NC(=O)Nc3cc(C(=O)Nc4cc(C(=O)NCCC(=N)N)n(C)c4)n(C)c3)cn2C)cc1C(=O)NCCC(=N)N` [Compound 3, N,N'-Di(1-methyl-2-[1-methyl-2-carboxamido(3-propionamidine)-4-pyrrole]-4-pyrrolyl)urea dihydrochloride] the EC50 [1] was 11.9 µM, the “Anti-HIV-1 Activity (National Cancer Institute Designation)” value [1] was “Moderate” and the “Solubility in DMSO” value ([9]; DMSO) was “good”. The “Solubility in H2O” value ([9]; H2O) was “good”, the “DNA Binding Constant” value [5] was 5.6e+07 M⁻¹ and the “NEUTRAL RED DYE UPTAKE” value ([10]; 10 μg/ml) was 99 ± 1 % OF CONTROL. The “NEUTRAL RED DYE UPTAKE” value ([10]; 30 μg/ml) was 99 ± 1 % OF CONTROL, the “NEUTRAL RED DYE UPTAKE” value ([10]; 100 μg/ml) was 99 ± 2 % OF CONTROL and the “NEUTRAL RED DYE UPTAKE” value ([10]; 300 μg/ml) was 82 ± 2 % OF CONTROL. The “INT[…] DNA MONO.” value ([11]; 10 μM) was 2.8 pg/μg CELL DNA and 2.2 pg/μg CELL DNA and 2.6 pg/μg CELL DNA and 2.5 pg/μg CELL DNA, the “HBV VIRION DNA DAY 0” value ([11]; 10 μM) was 57 pg/ml CULTURE MEDIUM and 64 pg/ml CULTURE MEDIUM and 74 pg/ml CULTURE MEDIUM and 60 pg/ml CULTURE MEDIUM and the “HBV VIRION DNA DAY 9” value ([11]; 10 μM) was 69 pg/ml CULTURE MEDIUM and 74 pg/ml CULTURE MEDIUM and 94 pg/ml CULTURE MEDIUM and 92 pg/ml CULTURE MEDIUM. For the same compound, the “INT[…] DNA MONO.” value ([11]; 50 μM) was 2.9 pg/μg CELL DNA and 2.2 pg/μg CELL DNA and 2.4 pg/μg CELL DNA, the “HBV VIRION DNA DAY 0” value ([11]; 50 μM) was 58 pg/ml CULTURE MEDIUM and 68 pg/ml CULTURE MEDIUM and 81 pg/ml CULTURE MEDIUM and the “HBV VIRION DNA DAY 6” value ([11]; 50 μM) was 67 pg/ml CULTURE MEDIUM and 44 pg/ml CULTURE MEDIUM and 78 pg/ml CULTURE MEDIUM and 76 pg/ml CULTURE MEDIUM. The “HBV VIRION DNA DAY 9” value [11, 12] was 16 pg/ml CULTURE MEDIUM and 13 pg/ml CULTURE MEDIUM and 19 pg/ml CULTURE MEDIUM and 10 pg/ml CULTURE MEDIUM and the “effect on HBV replication (in words)” value ([11]; tested at 50 and 10 μM, compared with 2',3'-ddC) was “weak inhibitor”.
In the case of `Cc1cn([C@H]2C[C@H](N=[N+]=[N-])[C@@H](CO)O2)c(=O)[nH]c1=O` [AZT], the “Toxicity, TD50” value [6] is reported as over 100.00 ug/mL^-1 and the “Activity, MIC50” value [7] is reported as 0.0014 µg/mL.
With `Cl.Cl.Cn1cc(NC(=O)c2cc(NC(=O)CC(=O)Nc3cc(C(=O)Nc4cc(C(=O)NCCC(N)=O)n(C)c4)n(C)c3)cn2C)cc1C(=O)NCCC(N)=O` [Compound 4, N,N'-Di(1-methyl-2-[1-methyl-2-carboxamido(3-proprionamide)-4-pyrrole]-4-pyrrolyl)malonamide dihydrochloride] the “DNA Binding Constant” value [5] was 3.6e+07 M⁻¹, the “NEUTRAL RED DYE UPTAKE” value ([10]; 10 μg/ml) was 99 ± 1 % OF CONTROL and the “NEUTRAL RED DYE UPTAKE” value ([10]; 100 μg/ml) was 100 ± 1 % OF CONTROL. The “NEUTRAL RED DYE UPTAKE” value ([10]; 300 μg/ml) was 99 ± 1 % OF CONTROL, the “INT[…] DNA MONO.” value ([11]; 10 μM) was 2.3 pg/μg CELL DNA and 2.8 pg/μg CELL DNA and 2.1 pg/μg CELL DNA and the “HBV VIRION DNA DAY 0” value ([11]; 10 μM) was 77 pg/ml CULTURE MEDIUM and 61 pg/ml CULTURE MEDIUM and 64 pg/ml CULTURE MEDIUM. For the same compound, the “HBV VIRION DNA DAY 6” value ([11]; 10 μM) was 52 pg/ml CULTURE MEDIUM and 55 pg/ml CULTURE MEDIUM and 96 pg/ml CULTURE MEDIUM and 59 pg/ml CULTURE MEDIUM, the “HBV VIRION DNA DAY 9” value ([11]; 10 μM) was 73 pg/ml CULTURE MEDIUM and 81 pg/ml CULTURE MEDIUM and 62 pg/ml CULTURE MEDIUM and 50 pg/ml CULTURE MEDIUM and the “INT[…] DNA MONO.” value ([11]; 50 μM) was 2.5 pg/μg CELL DNA and 2.8 pg/μg CELL DNA and 2.1 pg/μg CELL DNA and 2.4 pg/μg CELL DNA. For the same compound, the “HBV VIRION DNA DAY 0” value ([11]; 50 μM) was 63 pg/ml CULTURE MEDIUM and 66 pg/ml CULTURE MEDIUM and 78 pg/ml CULTURE MEDIUM and 74 pg/ml CULTURE MEDIUM, the “HBV VIRION DNA DAY 6” value ([11]; 50 μM) was 86 pg/ml CULTURE MEDIUM and 70 pg/ml CULTURE MEDIUM and 64 pg/ml CULTURE MEDIUM and 88 pg/ml CULTURE MEDIUM and the “HBV VIRION DNA DAY 9” value [11, 12] was 97 pg/ml CULTURE MEDIUM and 65 pg/ml CULTURE MEDIUM and 61 pg/ml CULTURE MEDIUM and 85 pg/ml CULTURE MEDIUM.
`O=C(O)C1=CC(=C(c2ccc(O)c(C(=O)O)c2)c2ccc(O)c(C(=O)O)c2)C=CC1=O` [Aurintricarboxylic acid, reference compound] showed an IC50 [4] of 3.36 µM.
